Laboratory results as given in PMC10254843, “Discovery of New 2-Phenylamino-3-acyl-1,4-naphthoquinones as Inhibitors of Cancer Cells Proliferation: Searching for Intra-Cellular Targets Playing a Role in Cancer Cells Survival” (Molecules, 2023).

Tests used:
TNF = test: RT-qPCR mRNA level of TNF in DU-145 cells; format: cell-based, human; conditions: DU145 cells, 24 h; compound 4 at 1 µM, compound 11 at 6 µM; normalized to B2M, 2^−∆∆Ct vs vehicle (1.00); mean ± SEM
GSR = test: RT-qPCR mRNA level of GSR in DU-145 cells; format: cell-based, human; conditions: DU145 cells, 24 h; compound 4 at 1 µM, compound 11 at 6 µM; normalized to B2M, 2^−∆∆Ct vs vehicle (1.00); mean ± SEM
Description: (§1) The […] cells were cultured as previously mentioned. […] Afterwards, they were washed with phosphate-buffered saline. The cellular lysate was prepared with E.Z.N.A.®RNA-Lock Reagent (Omega Bio-tek, Norcross, GA, USA) to preserve and immediately stabilize the total RNA for the subsequent gene expression assays. The total RNA isolated from the cells using the E.Z.N.A.®HP Total RNA Isolation Kit (Omega Bio-tek) was reverse-transcribed to cDNA using the AffinityScript QPCR cDNA Synthesis Kit (Agilent Technologies, Santa Clara, CA, USA) and 1000 ng of the RNA sample.
(§2) The cDNA synthesized was employed for qPCR using Brilliant III Ultra-Fast SYBR®Green QPCR Master Mix (Agilent Technologies) in an Mx3000P qPCR System (Agilent Technologies), employing a 96-well plate with 20 μL of PCR reaction per well and 10 pmol each of forward and reverse gene-specific primers. Nine genes were analyzed: B2M, Bcl2, CDC25A, CCN2, GSR, HDAC4, mTOR, TNF, TP53 and their quantitative real-time (qPCR) primer sequences are reported in Table S1 (supplementary material). The relative gene expressions were determined using Beta-2-microglobulin (B2M) as housekeeping, and the delta-delta Ct method (2^−∆∆Ct method) with regard to the vehicle-treated group (i.e., the reference group). Five biological replicates were used from each group (treated and reference group). […]

TP53 = test: RT-qPCR mRNA level of TP53 in DU-145 cells; format: cell-based, human; conditions: DU145 cells, 24 h; compound 4 at 1 µM, compound 11 at 6 µM; normalized to B2M, 2^−∆∆Ct vs vehicle (1.00); mean ± SEM
Description: as §1, §2

[1] = system: T24 (Urinary bladder cancer cells); test: MTT cell survival assay, T24 urinary bladder cancer cells; format: cell-based; conditions: Homo sapiens; MTT test; cells incubated at 37 °C for 48 h (Table 1 footnote); mean ± SEM, n = 3
Description: (§3) Human cancer cell lines from bladder (T24), prostate (DU–145), breast (MCF–7) and non-tumor HEK-293 cells were obtained from the American Type Culture Collection (ATCC, Manassas, VA, USA). The cultures were maintained at a density of 1–2 × 10^5 cells/mL and the medium was changed at 48- and 72-h intervals. They were cultured in high-glucose Dulbecco’s modified Eagle medium (Gibco, Grand Island, NY, USA) supplemented with 10% fetal calf serum, penicillin (100 U/mL) and streptomycin (100 μg/mL). All cultures were kept at 37 °C in 95% air/5% CO2 at 100% humidity. Phosphate-buffered saline (PBS) was purchased from Gibco. Cells were incubated at the indicated times at 37 °C with or without compounds 1–14 at various concentrations.
(§4) The cytotoxicity of the compounds 1–14 was assessed by following the reduction of MTT (3-(4,5-Dimethylthiazol-2-yl)-2,5-diphenyltetrazolium bromide) to formazan blue. […] Doxorubicin was used as a standard chemotherapeutic agent (positive control). Cells were washed twice with warm PBS and further incubated with MTT (0.5 mg/mL) for 2 h at 37 °C. Blue formazan crystals were solubilized by adding 100 µL DMSO/well, and the optical density of colored solutions was subsequently read at 550 nm in a microplate reader Tecan infinite M200 Pro (Männedorf, Switzerland). The compounds 1–14 were dissolved in DMSO (stock solution at 100 mM) and further diluted to be evaluated at the following concentrations: 0 μM, 1 μM, 10 μM, 20 μM, 40 μM, 60 μM, 80 μM and 100 μM. Results are expressed as % of MTT reduction compared to untreated control conditions. The IC50 values were calculated using the GraphPad Prism 8.0.2 software (San Diego, CA, USA).

[2] = system: DU-145 (prostate cancer cells); test: MTT cell survival assay, DU-145 prostate cancer cells; format: cell-based; conditions: Homo sapiens, MTT test, cells incubated at 37 °C for 48 h (Table 1 footnote), mean ± SEM, n = 3
Description: as §3, §4

[3] = system: MCF-7 (mammary cancer cells); test: MTT cell survival assay, MCF-7 mammary cancer cells; format: cell-based; conditions: Homo sapiens, MCF7; MTT test; cells incubated at 37 °C for 48 h (Table 1 footnote); mean ± SEM, n = 3
Description: as §3, §4

CCN2 = test: RT-qPCR mRNA level of CCN2 in DU-145 cells; format: cell-based, human; conditions: DU145 cells, 24 h; compound 4 at 1 µM, compound 11 at 6 µM; normalized to B2M, 2^−∆∆Ct vs vehicle (1.00); mean ± SEM
Description: as §1, §2

mTOR = test: RT-qPCR mRNA level of mTOR in DU-145 cells; format: cell-based, human; conditions: DU145 cells, 24 h; compound 4 at 1 µM, compound 11 at 6 µM; normalized to B2M, 2^−∆∆Ct vs vehicle (1.00); mean ± SEM; * p < 0.05 vs vehicle
Description: as §1, §2

[4] = system: HEK-293 cells/tumour cells; test: Mean selective index, HEK-293 vs tumour cells; format: cell-based, human; conditions: MSI = IC50 values HEK-293 cells/IC50 values tumour cells
Description: The cytotoxicity of the compounds 1–14 was assessed by following the reduction of MTT (3-(4,5-Dimethylthiazol-2-yl)-2,5-diphenyltetrazolium bromide) to formazan blue. Cells were seeded into 96-well plates at a density of 10,000 cells/well for 24 h and then they were further incubated for 24 h with or without the quinones. Doxorubicin was used as a standard chemotherapeutic agent (positive control). Cells were washed twice with warm PBS and further incubated with MTT (0.5 mg/mL) for 2 h at 37 °C. Blue formazan crystals were solubilized by adding 100 µL DMSO/well, and the optical density of colored solutions was subsequently read at 550 nm in a microplate reader Tecan infinite M200 Pro (Männedorf, Switzerland). The compounds 1–14 were dissolved in DMSO (stock solution at 100 mM) and further diluted to be evaluated at the following concentrations: 0 μM, 1 μM, 10 μM, 20 μM, 40 μM, 60 μM, 80 μM and 100 μM. Results are expressed as % of MTT reduction compared to untreated control conditions. The IC50 values were calculated using the GraphPad Prism 8.0.2 software (San Diego, CA, USA).

[5] = system: non-tumorigenic HEK-293 (embryonic kidney cells); test: MTT cell survival assay, non-tumorigenic HEK-293 cells; format: cell-based; conditions: Homo sapiens, HEK293; MTT test; cells incubated at 37 °C for 48 h (Table 1 footnote); mean ± SEM, n = 3
Description: as §3, §4

Bcl-2 = test: RT-qPCR mRNA level of Bcl-2 in DU-145 cells; format: cell-based, human; conditions: DU145 cells, 24 h; compound 4 at 1 µM, compound 11 at 6 µM; normalized to B2M, 2^−∆∆Ct vs vehicle (1.00); mean ± SEM
Description: as §1, §2

CDC25A = test: RT-qPCR mRNA level of CDC25A in DU-145 cells; format: cell-based, human; conditions: DU145 cells, 24 h; compound 4 at 1 µM, compound 11 at 6 µM; normalized to B2M, 2^−∆∆Ct vs vehicle (1.00); mean ± SEM
Description: as §1, §2

[6] = Half-wave potentials by cyclic voltammetry; format: physicochemical; conditions: for −E^I½ (mV): acetonitrile, platinum electrode, room temperature, negative of the potential; for half-wave potential: signed value
Description: Calculation of lipophilicity (ClogP) and molar refractivity (CMR) was assessed by using the ChemBioDraw Ultra 11.0 software and the obtained values are shown in Table 3. Redox potentials of 2-phenylamino-3-acyl-1,4-naphtoquinones 1–14 were measured by cyclic voltammetry at room temperature in acetonitrile as solvent using a platinum electrode and 0.1M tetraethylammonium tetrafluoroborate as the supporting electrolyte.

HDAC4 = test: RT-qPCR mRNA level of HDAC4 in DU-145 cells; format: cell-based, human; conditions: DU145 cells, 24 h; compound 4 at 1 µM, compound 11 at 6 µM; normalized to B2M, 2^−∆∆Ct vs vehicle (1.00); mean ± SEM
Description: as §1, §2

[7] = system: MCF-7 human breast cancer cell line; design: method as in PMID 23167798; conditions: cytotoxicity against MCF-7; cited from earlier work

O=C(C1=C(Nc2ccccc2)C(=O)c2ccccc2C1=O)c1ccccc1 [Compound 4, 2-(Phenylamino)-3-benzoylnaphthalene-1,4-dione]
Relative expression level (mRNA level) TNF (TNF): 1.20 ± 0.08 | Relative expression level (mRNA level) GSR (GSR): 0.95 ± 0.05 | Relative expression level (mRNA level) TP53 (TP53): 0.94 ± 0.04 | IC50 [1]: 15.8 ± 0.9 µM | IC50 [2]: 0.82 ± 0.1 µM | IC50 [3]: 5.16 ± 0.16 µM | Relative expression level (mRNA level) CCN2 (CCN2): 0.95 ± 0.03 | Relative expression level (mRNA level) mTOR (mTOR): 0.84 ± 0.06 | MSI (mean selective index) [4]: 6.2 | IC50 [5]: 45.2 ± 6.59 µM | Relative expression level (mRNA level) Bcl-2 (Bcl-2): 0.81 ± 0.05 | Relative expression level (mRNA level) CDC25A (CDC25A): 1.09 ± 0.10 | −E^I½ (mV) [6]: 695 mV | half-wave potential [6]: −695 mV | Relative expression level (mRNA level) HDAC4 (HDAC4): 0.91 ± 0.05

O=C(C1=C(Nc2ccccc2)C(=O)c2ccccc2C1=O)c1ccco1 [Compound 11]
Relative expression level (mRNA level) TNF (TNF): 0.93 ± 0.08 | Relative expression level (mRNA level) GSR (GSR): 0.94 ± 0.06 | Relative expression level (mRNA level) TP53 (TP53): 0.87 ± 0.05 | IC50 [1]: 11.7 ± 0.84 µM | IC50 [2]: 5.45 ± 0.21 µM | IC50 [3]: 4.64 ± 0.23 µM | Relative expression level (mRNA level) CCN2 (CCN2): 0.95 ± 0.09 | MSI (mean selective index) [4]: 13.7 | IC50 [5]: > 100 µM | Relative expression level (mRNA level) CDC25A (CDC25A): 0.90 ± 0.05 | −E^I½ (mV) [6]: 578 mV | half-wave potential [6]: −578 mV | Relative expression level (mRNA level) HDAC4 (HDAC4): 0.81 ± 0.07

O=C(C1=C(Nc2ccccc2)C(=O)c2ccccc2C1=O)c1ccco1 [compound V]
IC50 [7]: 1.5 µM
